From patent US20030073218A1, “High affinity inhibitors for target validation and uses thereof” (Princeton University, priority 1999, published 2003)

Columns and labels:
[1] = target: cGMP dependent protein kinase; settings: reported (89, 90); cited from earlier work
[2] = system: panel of wild-type protein kinases (v-src, Fyn, c-Abl, CAMK IIα, CDK2); experiment: In vitro inhibition, panel of wild-type protein kinases; format: biochemical
[3] = target: protein kinase A (Homo sapiens, UniProt P17612); settings: reported (89, 90); cited from earlier work
[4] = system: Trk family tyrosin kinases; settings: reported (89, 90); cited from earlier work
[5] = target: T1, wild-type c-Abl (Homo sapiens, UniProt P00519); experiment: In vitro inhibition by K252a; format: biochemical
T1 construct: GST; made in house
T1 sequence (P00519 whole entry): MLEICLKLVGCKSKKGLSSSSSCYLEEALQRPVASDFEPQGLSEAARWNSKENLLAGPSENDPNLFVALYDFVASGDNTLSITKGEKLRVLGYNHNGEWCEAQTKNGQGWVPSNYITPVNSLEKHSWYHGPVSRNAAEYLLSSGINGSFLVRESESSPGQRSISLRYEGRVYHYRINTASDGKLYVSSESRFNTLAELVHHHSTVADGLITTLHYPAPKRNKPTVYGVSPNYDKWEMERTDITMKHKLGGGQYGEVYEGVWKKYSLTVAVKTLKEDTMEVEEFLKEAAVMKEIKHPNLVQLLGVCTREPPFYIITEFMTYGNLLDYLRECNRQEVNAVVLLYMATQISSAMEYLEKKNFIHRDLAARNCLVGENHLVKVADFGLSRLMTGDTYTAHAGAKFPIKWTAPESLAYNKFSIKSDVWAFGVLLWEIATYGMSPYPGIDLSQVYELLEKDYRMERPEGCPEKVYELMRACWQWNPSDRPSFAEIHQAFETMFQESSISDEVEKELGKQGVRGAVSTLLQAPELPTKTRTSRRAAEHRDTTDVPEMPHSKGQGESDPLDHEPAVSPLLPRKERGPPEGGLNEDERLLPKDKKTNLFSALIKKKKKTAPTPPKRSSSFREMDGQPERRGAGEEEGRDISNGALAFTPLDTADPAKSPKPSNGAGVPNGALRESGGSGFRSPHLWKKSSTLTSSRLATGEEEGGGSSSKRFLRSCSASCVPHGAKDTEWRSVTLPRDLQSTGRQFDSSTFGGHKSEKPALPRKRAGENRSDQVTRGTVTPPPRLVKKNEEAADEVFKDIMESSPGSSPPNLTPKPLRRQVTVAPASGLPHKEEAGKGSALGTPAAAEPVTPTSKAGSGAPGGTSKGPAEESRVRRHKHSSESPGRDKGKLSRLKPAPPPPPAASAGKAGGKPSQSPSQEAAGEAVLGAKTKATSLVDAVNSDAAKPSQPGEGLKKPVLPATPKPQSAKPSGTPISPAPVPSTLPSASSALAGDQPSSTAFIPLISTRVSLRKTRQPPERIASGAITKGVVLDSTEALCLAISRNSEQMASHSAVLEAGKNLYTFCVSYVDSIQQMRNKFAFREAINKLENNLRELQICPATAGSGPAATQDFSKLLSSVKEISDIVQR

[6] = system: S. cerevisiae expressing wild-type Fus3, Fus3-as1, or no Fus3; experiment: Non-selective cytotoxicity control, mating cultures plated on YPD; format: cell-based, Saccharomyces cerevisiae; settings: any of the three strains
[7] = system: wild-type Fus3 expressing yeast; experiment: Yeast mating assay for Fus3 function; format: cell-based, Saccharomyces cerevisiae; settings: all concentrations up to 50 μM
[8] = system: I338G v-Src, T339G Fyn, T315A Abl, F89G CAMK IIα and F80G CDK2; experiment: In vitro inhibition, panel of engineered protein kinases; format: biochemical
[9] = system: cdc28-as1 cells; experiment: DNA content (flow cytometry) and morphology of yeast cells; format: cell-based, Saccharomyces cerevisiae; settings: for cell cycle effect (G2/M DNA content, large hyperpolarized buds): asynchronous cells
Protocol: DNA flow cytometry: Approximately 1×10^7 cells for each sample were fixed in 70% ethanol, resuspended in 50 mM Tris-HCl pH 8.0, briefly sonicated, digested with 2mg/ml RNase for 2 hours at 37° C., and resuspended in 0.2 ml protease solution (5 mg/ml pepsin. 0.5% concentrated HCl ) and digested for 45 minutes at 37° C. DNA was stained with 1μM Sytox Green (Molecular Probes) in 50 mM Tris-HCl pH 7.5 and 20,000 cells from each sample were scanned with a FACScan FACS machine (Becton-Dickinson).
Thus, it appears possible to titrate the level of Cdc28-as1 activity in vivo, allowing the identification of cell cycle events that are differentially sensitive to decreases in the catalytic activity of Cdc28.
When cdc28-as1 cells were synchronized in G1 with the yeast mating pheromone, α-factor factor, and then released into fresh media containing 500 nM 1-NM-PP 1, initiation of budding and DNA synthesis were delayed about 30 to 60 minutes, while accumulation of the mitotic cyclin Clb2 was delayed 60 to 90 minutes. […] Thus, cells treated with low concentrations of the inhibitor are slightly delayed during progression through early stages of the cell cycle, but eventually arrest due to a failure to assemble a mitotic spindle and enter mitosis.
These cells eventually budded after 180 to 240 minutes and arrested with a IC DNA content, large hyperpolarized buds, a single DNA mass in the mother cell, and an interphase astral microtubule array.

[10] = system: wild-type strain (CDC28); experiment: Yeast growth; format: cell-based, Saccharomyces cerevisiae
Protocol: (§1) Yeast Plasmid and Strain Construction: Media and genetic and microbial techniques were essentially as described (148, 153). All strains were derivatives of W30-3 (ura3-a, leu2-3, 112, trpl-1, his3-11,15, ade2-1, can1-100, GAL+). All strains were grown at 23° C. unless otherwise noted. To create cdc28-as1, the CDC28 coding sequence and 400 bp of 5′-and 386 bp of 3′-flanking DNA was PCR-amplified from genomic DNA and ligated into pRS306 to make pJAU1. The F88G mutation was engineered by oligonucleotide-directed mutagenesis of pJAU1. The plasmid was integrated into the wild-type CDC28 locus following AflII digestion by a pop-in-pop-out strategy as described (148, 153).
as §1, with “To examine the function of Cdc28 in vivo, a yeast strain in which the wild-type copy of CDC28 was replaced by cdc28-as1 was constructed.” for “Yeast Plasmid and Strain Construction:”, “W303 (ura3-1,” for “W30-3 (ura3-a,”, “cdc28-as1 ,” for “cdc28-as1,”, “5′- and” for “5′-and”, “AfII” for “AflII”

[11] = system: cdc28-as1 strain; experiment: Yeast growth; format: cell-based, Saccharomyces cerevisiae
Protocol: as §1
as §1, with “To examine the function of Cdc28 in vivo, a yeast strain in which the wild-type copy of CDC28 was replaced by cdc28-as1 was constructed.” for “Yeast Plasmid and Strain Construction:”, “W303 (ura3-1,” for “W30-3 (ura3-a,”, “cdc28-as1 ,” for “cdc28-as1,”, “5′- and” for “5′-and”, “AfII” for “AflII”

[12] = target: T2, I338G v-Src (Rous sarcoma virus subgroup A, UniProt P00524, DEL77-225/I338G); experiment: biochemical; format: biochemical; settings: Table 3; read-out: IC50, 1338G v-Src
T2 construct: screened against the catalytic domain of the target kinase, I338G v-Src; made in house; host or cells: E. coli DH5a, pGEX-KT

[13] = system: Fus3-as1 expressing yeast; experiment: Yeast mating assay for Fus3 function; format: cell-based, Saccharomyces cerevisiae; settings: 50 μM
[14] = target: T3, Cdc28-as1 · MBP-Clb2 (Saccharomyces cerevisiae, UniProt P00546, F88G); experiment: 1-NM-PP1 IC50, Histone H1 kinase assay; format: biochemical; settings: 1 MM ATP
T3 construct: made in house; host or cells: Sf9 insect cells, baculovirus, co-infected with Cak1-HA3 (Cdc28-as1-His6); bacteria (MBP-Clb2)
T3 sequence (P00546 whole entry F88G): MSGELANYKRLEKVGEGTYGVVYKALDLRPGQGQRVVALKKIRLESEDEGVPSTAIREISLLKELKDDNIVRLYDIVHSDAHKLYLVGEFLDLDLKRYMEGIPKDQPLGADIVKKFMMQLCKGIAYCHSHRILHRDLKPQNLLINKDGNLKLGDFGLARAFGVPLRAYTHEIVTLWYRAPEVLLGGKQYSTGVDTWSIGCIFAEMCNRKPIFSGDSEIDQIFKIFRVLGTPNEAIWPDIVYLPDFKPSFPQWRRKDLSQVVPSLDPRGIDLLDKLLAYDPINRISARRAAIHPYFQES
T3 sequence (P24869 whole entry, further chain): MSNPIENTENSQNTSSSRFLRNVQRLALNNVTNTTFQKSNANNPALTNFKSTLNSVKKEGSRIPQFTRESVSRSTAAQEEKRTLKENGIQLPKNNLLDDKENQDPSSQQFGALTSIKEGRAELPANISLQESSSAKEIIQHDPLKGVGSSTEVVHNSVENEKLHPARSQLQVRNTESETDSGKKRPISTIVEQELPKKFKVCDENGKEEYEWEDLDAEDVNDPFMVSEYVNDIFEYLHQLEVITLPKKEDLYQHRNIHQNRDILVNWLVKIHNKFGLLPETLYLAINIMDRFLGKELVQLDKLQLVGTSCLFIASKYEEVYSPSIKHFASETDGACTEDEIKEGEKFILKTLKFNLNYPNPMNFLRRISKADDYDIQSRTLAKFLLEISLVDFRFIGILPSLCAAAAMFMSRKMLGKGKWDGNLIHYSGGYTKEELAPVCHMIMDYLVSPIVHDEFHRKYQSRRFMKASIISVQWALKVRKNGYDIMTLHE
Protocol: Phosphate incorporation was determined at each inhibitor concentration by scintillation counting.
Cdc28-as1 is highly sensitive to 1-NM-PP1 in vitro and is a slightly weakened kinase.

[15] = system: wild-type cells; experiment: Genome-wide transcription, oligonucleotide DNA arrays; format: cell-based, Saccharomyces cerevisiae
Excerpt: (§2) Error bars represent standard errors of the means.
(§3) Changes were deemed significant if they were greater than or equal to 2-fold or if the transcript changed present/absent status (as indicated by Affymetrix software) in the following comparisons: for non-specific drug effects: CDC28+1-NM-PP1 vs. CDC28; for cdc28-as1 effects: cdc28-as1 vs. CDC28.

[16] = system: cdc28-as1 cells; experiment: as above; format: cell-based, Saccharomyces cerevisiae
Excerpt: as §2, §3

[17] = target: T4, WT v-Src (Rous sarcoma virus subgroup A, UniProt P00524, DEL77-225); experiment: biochemical; format: biochemical; settings: Table 3, wild type; read-out: IC50, vSrc
T4 construct: mutant of the v-Src catalytic domain, (the XD4 fragment) were made as glutathione S-transferase (GST) fusion proteins; made in house; host or cells: E. coli (DH5a), pGEX-KT

[18] = system: cdc28-as1 strain lacking PCL1 and PCL2; experiment: Budding and DNA content after release from G1; format: cell-based, Saccharomyces cerevisiae; settings: G1 synchronized, released into 5,000 nM
Protocol: Pho85, a Cdk that is closely related to Cdc28, has been implicated in the initiation of budding in S. cerevisiae (128, 129). Therefore, the budding observed in cdc28-as1 cells released into 5,000 nM 1-NM-PP1 due to residual Cdc28-as1 activity or due to Pho85 activity was investigated. A cdc28-as1 strain lacking PCL1 and PCL2, which encode the two G1 activating cyclins of Pho85 were constructed. […] It was concluded that Pc11- and Pc12-associated Pho85 activity, and not residual Cdc28 activity, are responsible for the greatly delayed budding observed in cdc28-as1 cells treated with high concentrations of inhibitor.

[19] = target: T5, Cdc28-as1 (F88G Cdc28) (Saccharomyces cerevisiae, UniProt P00546, F88G); experiment: In vitro sensitivity of Cdc28 kinases to PP1 derivatives (Example 19); format: biochemical; settings: read-out: IC50, engineered Cdc28
T5 construct: made in house
T5 sequence (P00546 whole entry F88G): as the sequence (P00546 whole entry F88G) above
T5 sequence (P24869 whole entry, further chain): as the sequence (P24869 whole entry, further chain) above

[20] = G1 synchronized with α-factor, released into 500 nM
[21] = G1 synchronized, released into 5,000 nM

SMILES: COC(=O)[C@@]1(O)C[C@H]2O[C@]1(C)n1c3ccccc3c3c4c(c5c6ccccc6n2c5c31)C(=O)NC4 [Compound K252a, (+)-K252a]
- IC50 [1]: ≤ 30 nM
- inhibition of wild-type protein kinases (in words) [2]: can efficiently inhibit Src family kinases, cyclin dependent kinases, and calmodulin dependent kinases
- IC50 [3]: ≤ 30 nM
- IC50 [4]: ≤ 30 nM
- inhibition of wild-type Abl [5]: not effectively inhibited

SMILES: CC(C)(C)n1nc(Cc2cccc3ccccc23)c2c(N)ncnc21 [Compound 6h, 4-amino-1-(tert-butyl)-3-(1′-naphthylmethyl)pyrazolo[3,4-d]pyrimidine]
- cfu/mL on YPD plates (non-selective cytotoxicity) [6]: No significant decrease in cfu/mL on YPD plates
- mating efficiency [7]: no decrease in mating efficiency
- inhibition of engineered kinases (in words) [8]: the most potent inhibitor of every engineered kinase tested
- IC50 ([8]; within a 3 fold range, read-out: IC50 for all of the glycine mutants): < 10 nM
- concentration at which wild-type kinases are inhibited ([2]; none inhibited below this concentration): ≥ 1 µM
- delay of accumulation of the mitotic cyclin Clb2 [9, 20]: 60 to 90 min
- delay of initiation of budding and DNA synthesis [9, 20]: 30 to 60 min
- terminal arrest phenotype ([9]; G1 synchronized, released into 500 nM): arrest with moderate Clb2 levels, highly hyperpolarized buds, and a G2M DNA content
- arrest phenotype [9, 21]: arrested with a IC DNA content and initially failed to bud
- time after which cells eventually budded [9, 21]: 180 to 240 min
- cell cycle effect (G2/M DNA content, large hyperpolarized buds) ([9]; 50 nM): delay
- cell cycle effect (G2/M DNA content, large hyperpolarized buds) ([9]; 500 nM): arrest
- cell cycle effect ([9]; asynchronous cells, 5,000 nM): non-uniform arrest that included unbudded GI cells as well as large-budded G2/M cells
- proliferation of wild-type cells [10]: unaffected by the inhibitor except at very high concentrations
- growth of wild-type strains ([10]; same concentrations): had no effect on the growth of wild-type strains
- growth of yeast which express Cdc28-as1 [11]: completely ablated
- inhibitor concentration for complete growth arrest [11]: above 500 nM
- IC50 ([11]; in vivo, read-out: inhibitor concentration at which growth is inhibited 50%): 50 to 100 nM
- IC50 [12]: 4.2 nM
- decrease of Fus3-as1 mediated mating [13]: 85 fold
- IC50 [14]: ~3 nM
- effects on wild-type cell physiology ([15]; 500 nM): has no significant effects on wild-type cell physiology
- number of genes whose transcription changed greater than two-fold ([15]; 500 nM, 30 minutes): 6 genes
- share of genes whose transcription changed greater than two-fold ([15]; 500 nM, 30 minutes): 0.1%
- number of genes changed ([15]; 120 minutes): 3 genes
- G2/M transcription ([16]; 500 nM, 120 minutes): causes a drop in G2/M transcription
- down-regulated transcripts that are cell cycle-regulated ([16]; 500 nM, two hours): 60 transcripts
- down-regulated transcripts with peak expression at G2/M ([16]; 500 nM, two hours): 32 transcripts
- number of genes with […] or greater decreases ([16]; 500 nM, two hours): 66 genes
- number of genes with […] or greater increases ([16]; 500 nM, two hours): 38 genes
- down-regulation of the Cln-Cdc28 inhibitor Far 1 transcript ([16]; two-hour drug exposure): 20 fold
- IC50 [17]: 28 µM
- arrest phenotype [18]: arrested with a 1C DNA content and never budded, even after 6 hours
- IC50 [19]: 3.9 nM
